Experimental data reported in patent US12187720B2, “Compounds for treatment of cancer” (ONCTERNAL THERAPEUTICS, INC., priority 2010, dated 2025).
Like-named read-outs stand apart in the source and are kept apart here.

Columns and labels:
Bovine brain tubulin = experiment: In vitro tubulin polymerization assay (bovine brain tubulin); assay type: biochemical; details: 10 μM
[1] = Metabolic stability in rat liver microsomes; assay type: in vitro ADME; details: Table 20; for half-life at 0.5 μM: rat, liver microsomes, pH 7.4, read-out: Half life in Rat liver microsome
[2] = Metabolic stability in dog liver microsomes; assay type: in vitro ADME; details: Table 20; for half-life at 0.5 μM: dog, dog liver microsomes, pH 7.4, read-out: Half life in Dog liver microsome
[3] = tested on: tubulin (colchicine, vinblastine and paclitaxel binding sites); experiment: Mass spectrometry competitive binding assay on tubulin
Description: MS competition binding assay. […] Each reaction was run in triplicate.

in vivo [4] = details: Sprague-Dawley, rat, plasma, iv
[5] = Pharmacokinetic study in Sprague-Dawley rats
in vivo [6] = details: male, ICR, mouse, plasma, iv, 15 mg/kg
PC-3 cells = experiment: Apoptosis detection by ELISA (cytoplasmic DNA-histone complexes), PC-3 cells; assay type: cell-based, human; details: PC-3 and A375 cells, 24 h
Description: The levels of DNA-histone complexes were used to represent cell apoptosis.
Apoptosis detection by ELISA. Quantification of the enrichment of mono- and oligonucleosomes in the cytoplasm was used to determine the ability of the compounds to induce apoptosis (cell death detection ELISA PLUS, Roche, Germany) following the manufacturer's instructions.

PC-3 xenografts = details: for mice that lost more than 15% body weight: mouse, in vivo
Description: (§1) In vivo antitumor activity [tumor growth inhibition (% T/C), tumor growth delay (T-C value), and tumor cell kill (total log cell kill)].

[7] = Metabolic stability in mouse liver microsomes; assay type: in vitro ADME; details: for half-life at 0.5 μM: mouse, liver microsomes, pH 7.4, Table 20, read-out: Half life in Mouse liver microsome
[8] = tested on: A375 human melanoma xenograft; experiment: In vivo efficacy, A375 human melanoma xenograft in mice
Procedure: DTIC at 60 mg/kg was used as a positive control again.
PC-3 and A375 tumor xenograft studies.
as §1

[9] = Metabolic stability in monkey liver microsomes; assay type: in vitro ADME; details: Table 20; for half-life at 0.5 μM: monkey, monkey liver microsomes, pH 7.4, read-out: Half life in Monkey liver microsome
[10] = Rotarod test (in vivo neurotoxicity) in ICR mice; parameters: species or system mouse; details: 1h 5 or 15 mg/kg, vinblastine 0.5 mg/kg, i.p. daily
Procedure: Rotarod test. […] The rotarod test was performed twice a week.

LNCaP = experiment: SRB cytotoxicity assay, LNCaP prostate cancer cells; assay type: cell-based, human; details: Homo sapiens, LNCaP
Description: (§2) Cells were stained with SRB solution.

DU 145 = experiment: SRB cytotoxicity assay, DU 145 prostate cancer cells; assay type: cell-based; details: Homo sapiens
Description: as §2

PPC-1 = experiment: SRB cytotoxicity assay, PPC-1 prostate cancer cells; assay type: cell-based, human; details: Homo sapiens, PPC-1
Description: as §2

PC-3 = experiment: SRB cytotoxicity assay, PC-3 prostate cancer cells; assay type: cell-based, human; details: Homo sapiens, PC-3
Description: as §2

DU145/TXR = experiment: SRB growth inhibition, paclitaxel-resistant DU145/TXR cells; assay type: cell-based; details: Homo sapiens, DU-145; Table 13A; read-out: inhibitory effects DU145/TXR
PC-3/TxR = experiment: cells; details: Homo sapiens, PC3-TxR, read-out: inhibitory effects PC3/TXR
in vitro = details: human, microsomes, pH 7.4
[11] = Metabolic stability in human liver microsomes; details: Table 20
MES-SA/DX5 = experiment: SRB growth inhibition assay, P-gp over-expressing MES-SA/DX5 cells; assay type: cell-based; details: Table 6; read-out: IC50 ± SEM MES-SA/Dx5
[12] = Pharmacokinetic study in ICR mice; details: Mice, 15 mg/kg i.v.
B16-F1 melanoma tumors = experiment: In vivo efficacy, B16-F1 melanoma in C57/BL mice; parameters: species or system mouse; details: 13 days, C57BL/6 mice
B16-F1 = experiment: SRB cytotoxicity assay, B16-F1 mouse melanoma cells; assay type: cell-based; details: Mus musculus, B16-F1, 48 h, read-out: IC50 ± SEM B16-F1 (converted)
WM-164 = experiment: SRB cytotoxicity assay, WM-164 human melanoma cells; assay type: cell-based; details: Homo sapiens, WM164, 48 h, read-out: IC50 ± SEM WM164 (converted)
A375 = experiment: SRB cytotoxicity assay, A375 human melanoma cells; assay type: cell-based; details: Homo sapiens, A-375, 48 h, read-out: IC50 ± SEM A375
[13] = Table 13A, read-out: inhibitory effects LNCaP
[14] = Table 13A, read-out: inhibitory effects DU145
[15] = Table 13A, read-out: inhibitory effects PPC1
[16] = Table 13A, read-out: inhibitory effects PC3

SMILES: COc1cc(C(=O)c2csc(-c3ccccc3)n2)cc(OC)c1OC [1h, (2-Phenyl-thiazol-4-yl)-(3,4,5-trimethoxy-phenyl)-methanone]
- inhibition of tubulin polymerization (Bovine brain tubulin; 15 min): 90%
- inhibition of tubulin polymerization (Bovine brain tubulin; 20 min incubation, versus vehicle): 47%
- half-life at 0.5 μM [1]: 31 min
- half-life at 0.5 μM [2]: 19 min
- dose that did not cause greater than 10% loss of body weight (ICR mice, 4 consecutive days of intraperitoneal dosing): up to 30 mg/kg
- competition for tubulin binding sites [3]: specifically competed with colchicine binding to tubulin
- Vd (in vivo [4]; […]): 7.6 L/kg
- clearance (in vivo [4]; […]): 6 mL/min/kg
- half-life (in vivo [4]; […]): 1440 min
- clearance (in vivo [4]; female): 7.7 ± 1 mL/min/kg
- Vss (volume of distribution following intravenous dosing) ([5]; IV, […] (1h, 2r), 5 mg/kg (5Ha, 5Hc)): 4.9 ± 1.9 L/kg
- RatPK_PO10mgk_AUC ([5]; rat, PO 10 mg/kg): 37 µg·min/mL
- F (percent oral bioavailability), rat ([5]; rats, PO versus IV): 3.3%
- AUC (in vivo [6]): 1900 ng·h/mL
- half-life (in vivo [6]): 140 min
- concentration inducing apoptosis (PC-3 cells): 50 nM
- % T/C (PC-3 xenografts; 5 mg/kg i.p.): 29%
- % T/C (PC-3 xenografts; 15 mg/kg i.p.): 4%
- % T/C (PC-3 xenografts; ip, 15 mg/kg, 504 h): 4%
- mice that lost more than 15% body weight (PC-3 xenografts): 1 of 8
- half-life at 0.5 μM [7]: < 5 min
- T-C (tumor growth delay) ([8]; Melanoma (A375) xenograft, 20 mg/kg i.p.): 10 days
- Total log cell kill ([8]; ip, 20 mg/kg, 110.4 h): 0.7
- half-life at 0.5 μM [9]: < 5 min
- time on the rotating rod versus vehicle group [10]: no significant difference

SMILES: COc1cc(C(=O)c2nc(-c3ccc(C(F)(F)F)cc3)c[nH]2)cc(OC)c1OC [70e, (4-(4-(trifluoromethyl)phenyl)-1H-imidazol-2-yl)(3,4,5-trimethoxyphenyl)methanone]
- IC50 (LNCaP; [13]): 47 nM
- IC50 (DU 145; [14]): 210 nM
- IC50 (PPC-1; [15]): 75 nM
- IC50 (PC-3; [16]): 93 nM
- IC50 (DU145/TXR): 202 nM
- IC50 (PC-3/TxR): 46 nM

SMILES: COc1ccc(-c2c[nH]c(C(=O)c3cc(OC)c(OC)c(OC)c3)n2)cc1 [70g, (4-(4-methoxyphenyl)-1H-imidazol-2-yl)(3,4,5-trimethoxyphenyl)methanone]
- IC50 (DU 145; [14]): 210 nM
- IC50 (PPC-1; [15]): 54 nM
- IC50 (PC-3; [16]): 61 nM
- IC50 (DU145/TXR): 111 nM
- IC50 (PC-3/TxR): 25 nM

SMILES: COc1cc(C(=O)c2csc(-c3ccc(O)cc3)n2)cc(OC)c1OC [2l, (2-(4-Hydroxyphenyl)thiazol-4-yl)(3,4,5-trimethoxyphenyl)methanone]
- half-life at 0.5 μM [1]: 49 min
- half-life at 0.5 μM [2]: 30 min
- half-life at 0.5 μM [7]: 11 min
- half-life at 0.5 μM [9]: 8 min
- half-life at 0.5 μM (in vitro): 20 min

SMILES: COc1cc(C(=O)c2nc(-c3ccc(Cl)cc3)c[nH]2)cc(OC)c1OC [70c, (4-(4-chlorophenyl)-1H-imidazol-2-yl)(3,4,5-trimethoxyphenyl)methanone]
- IC50 (LNCaP; [13]): 22 nM
- IC50 (DU 145; [14]): 125 nM
- IC50 (PPC-1; [15]): 51 nM
- IC50 (PC-3; [16]): 64 nM
- IC50 (PC-3/TxR): 25 nM

SMILES: COc1cc(C(=O)c2csc(-c3ccc(F)cc3)n2)cc(OC)c1OC [2k]
- Half life in Rat liver microsome [1]: 32 min
- Half life in Dog liver microsome [2]: 16 min
- dose that did not cause greater than 10% loss of body weight (mouse, in vivo, ip): ≤ 15 mg/kg
- half life in human liver microsome [11]: 10 min
- concentration inducing apoptosis (PC-3 cells): 50 nM
- % T/C (PC-3 xenografts; 5 mg/kg i.p.): 21%
- % T/C (PC-3 xenografts; 15 mg/kg i.p.): 24%
- % T/C (PC-3 xenografts; Prostate (PC-3) xenograft, 5 mg/kg i.p., 21 days): 21%
- % T/C (PC-3 xenografts; Prostate (PC-3) xenograft, 15 mg/kg i.p., 21 days): 24%
- mice that lost more than 15% body weight (PC-3 xenografts): 2 out of 7
- Half life in Mouse liver microsome ([7]; Table 20): 9 min
- T-C (tumor growth delay) ([8]; Melanoma (A375) xenograft, 15 mg/kg i.p.): 11 days
- Total log cell kill ([8]; Melanoma (A375) xenograft, 15 mg/kg i.p., doubling time 4.6 d): 0.7
- Half life in Monkey liver microsome [9]: <5 min
- IC50 (MES-SA/DX5): 19 nM
- AUC [12]: 22 µg·h/mL
- CL [12]: 112 mL/min/kg
- Vss [12]: 6.6 L/kg

SMILES: O=C(c1ccc(F)cc1)c1c[nH]c(-c2ccc(Cl)cc2)n1 [12fb, (2-(4-chlorophenyl)-1H-imidazol-4-yl)(4-fluorophenyl)methanone]
- tumor growth inhibition (TGI value) (B16-F1 melanoma tumors; 45 mg/kg): 82%
- tolerability ([8]; 25 mg/kg, SHO mice): well tolerated
- half-life at 0.5 μM (in vitro): 37 min

SMILES: O=C(c1cccc(F)c1)c1cn(S(=O)(=O)c2ccccc2)c(-c2ccccc2)n1 [11ag, (3-fluorophenyl)(2-phenyl-1-(phenylsulfonyl)-1H-imidazol-4-yl)methanone]
- IC50 (B16-F1; Table 13, 48 h): > 10 µM
- IC50 (LNCaP; Table 13, 96 h, read-out: IC50 ± SEM LNCaP): > 10000 nM
- IC50 (DU 145; Table 13, 96 h, read-out: IC50 ± SEM Du 145): > 10000 nM
- IC50 (PPC-1; Table 13, 96 h, read-out: IC50 ± SEM PPC-1): > 10000 nM
- IC50 (PC-3; Table 13, 96 h, read-out: IC50 ± SEM PC-3): > 10000 nM
- IC50 (WM-164; Table 13, 48 h): > 10 µM
- IC50 (A375; Table 13, 48 h): > 10 µM

SMILES: CN(C)/N=N/c1[nH]cnc1C(N)=O [DTIC, reference compound]
- tumor growth inhibition (TGI value) (B16-F1 melanoma tumors; 60 mg/kg): 51%
- tumor growth inhibition (TGI value) ([8]; 60 mg/kg, 31 days, SHO mice): 52%

SMILES: COc1cc(C(=O)c2cn(C)c(-c3ccc(C)cc3)n2)cc(OC)c1OC [12dab, (1-methyl-2-(p-tolyl)-1H-imidazol-4-yl)(3,4,5-trimethoxyphenyl)methanone]
- half-life at 0.5 μM [1]: 12 min
- half-life at 0.5 μM [2]: 46 min
- half-life at 0.5 μM [7]: < 5 min
- half-life at 0.5 μM (in vitro): 21 min

SMILES: COc1cc(-c2nc(C(=O)c3ccc(F)cc3)c[nH]2)cc(OC)c1OC [12eb, (4-fluorophenyl)(2-(3,4,5-trimethoxyphenyl)-1H-imidazol-4-yl)methanone]
- IC50 (B16-F1; Table 12, 48 h): > 10 µM
- IC50 (WM-164; Table 12, 48 h): > 10 µM
- IC50 (A375; Table 12, 48 h): > 10 µM
